The text below walks through data of patent US20080027042A1, “Novel Aminopyridine Derivatives Having Aurora a Selective Inhibitory Action” (priority 2004, published 2008).

Each structure is given as a SMILES string. “And” between values parts separate entries of the source, which are not always exact repeats. Equal values may be shown once.

The target of test [1] is T1, Aurora A (Homo sapiens, UniProt O14965).
T1 construct: histidine tag (N); made in house; host or cells: Escherichia coli BL21-CodonPlus(DE3)-RIL
T1 sequence (O14965 1-403): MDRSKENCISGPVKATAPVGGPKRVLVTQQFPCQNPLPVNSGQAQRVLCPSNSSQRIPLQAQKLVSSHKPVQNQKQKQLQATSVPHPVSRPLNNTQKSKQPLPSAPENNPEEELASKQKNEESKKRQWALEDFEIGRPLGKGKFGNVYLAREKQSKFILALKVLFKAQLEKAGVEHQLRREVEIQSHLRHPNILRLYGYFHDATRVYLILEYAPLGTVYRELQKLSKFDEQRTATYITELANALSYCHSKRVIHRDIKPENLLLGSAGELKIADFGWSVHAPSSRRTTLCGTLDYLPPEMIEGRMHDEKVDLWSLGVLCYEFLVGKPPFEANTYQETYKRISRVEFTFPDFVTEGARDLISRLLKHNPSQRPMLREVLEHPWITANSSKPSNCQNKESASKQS
Nature of the test: Aurora A inhibitory action (33P-ATP kinase assay, Kemptide substrate). It counts as biochemical. Conditions: 20 μM ATP, 30° C., 20 minutes. In outline: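 His-tagged Aurora A expressed in E. coli, Ni-purified; reaction in 50 mM Tris pH 7.4, 15 mM Mg acetate, 0.2 mM EDTA with 100 μM Kemptide, 20 μM ATP plus [γ-33P]ATP, 20 min at 30 °C. Phosphopeptide captured on P81 filters and counted by scintillation; DMSO control.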

Test [2] has as its system Human cervical cancer cells (HeLa S3). The test can be described thus: Cell growth inhibitory effect, WST-8 method. It counts as cell-based. Particulars: 72 h, HeLa S3, three days incubation. From the text: Method for Judging the Pharmaceutical Effect Using cells
Fetal calf serum (FCS) was purchased from Moregate Biotech, and DMEM medium was purchased from Invitrogen Corp. WST-8 was purchased from Kishida Chemical Co., Ltd.
(§1) Human cervical cancer cells (HeLa S3) were obtained from the American Type Culture Collection (ATCC).
(§2) c) Method of Judging the Effect
Cells were suspended in a DMEM medium containing 10% FCS, and the cell suspension was dispensed to a 96-well plastic plate at a rate of 750 cells/l 00 microliters per well. The plate was incubated overnight in 5% CO2-95% air at 37° C. A drug was subjected to graded dilution in dimethylsulfoxide and further diluted with a DMEM medium containing 10% FCS. Then, the dilution was dispensed to the plate on which cells had been disseminated, at a rate of 100 microliters per well. The plate was incubated for further three days in 5% CO2-95% air at 37° C. Cell growth after incubation was measured by the WST-8 method (H. Tominaga, et al., Anal. Commun., 36, 47-50 (1999)). Here, the WST-8 method refers to a method in which 20 microliters of a WST-8 reagent solution is added to each well, incubation is conducted at 37° C. for 45 minutes, the plate is stirred, and the amount of formazan produced is measured by a calorimetric method to determine the inhibitory rate of the drug. The concentration for 50% growth inhibition (EC50, IM) of the compound was determined.
Background: Tetrazolium dyes change colour on reduction, which living cells bring about.

For test [3] the test system is unchanged. The test can be described thus: Effect by combined use of drugs in cells (with paclitaxel), WST-8 method. Type of test: cell-based. Particulars: three days; for inhibition at 0.1 µM: HeLa S3, compound 0.1 μM alone; for inhibition at 0.3 µM: HeLa S3, compound 0.3 μM alone.
Text: Method for Judging the Effect by Combined Use of Drugs in Cells
Fetal calf serum (FCS) was purchased from Moregate Biotech, DMEM medium from Invitrogen Corp., paclitaxel (tradename: Taxol) from Sigma-Aldrich, Inc., and WST-8 from Kishida Chemical Co., Ltd.
as §1, §2
Cells were suspended in a DMEM medium containing 10% FCS, and the cell suspension was dispensed to two 96-well plastic plates at a rate of 750 cells/100 microliters per well. The plates were incubated overnight in 5% CO2-95% air at 37° C. A drug was subjected to graded dilution in dimethylsulfoxide and flurther diluted with DMSO or with a DMEM medium containing 10% FCS and also containing 2 nM paclitaxel. Then, the dilutions were each dispensed to one of the plates on which cells had been disseminated, at a rate of 100 microliters per well. The final concentration of paclitaxel at this stage was 1 nM. Also, the concentrations in the case of sole administration of the compound according to the invention were 0.03, 0.1, 0.3, 1 and 3 μM. The plates were incubated for further three days in 5% CO2-95% air at 37° C. Cell growth after incubation was measured by the WST-8 method (H. Tominaga, et al., Anal. Commun., 36, 47-50 (1999)). Here, the WST-8 method refers to a method in which 20 microliters of a WST-8 reagent solution is added to each well, incubation is conducted at 37° C. for 45 minutes, the plate is stirred, and the amount of formazan produced is measured by a colorimetric method to determine the inhibitory rate of the drug. The growth inhibitory effects of paclitaxel and of the compound according to the invention were determined, with the value obtained in sole treatment of DMSO being defined as 0%.

The target of test [4] is T2, Aurora B (Homo sapiens, UniProt Q96GD4).
T2 construct: histidine tag (N); made in house; host or cells: Escherichia coli BL21-CodonPlus(DE3)-RIL
Nature of the test: Aurora B inhibitory action (33P-ATP kinase assay, Kemptide substrate). Type of test: biochemical. Particulars: 100 μM ATP, 30° C., 20 minutes. In short, it runs like this:
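His-tagged Aurora B expressed in E. coli, reacted with 100 μM Kemptide, 100 μM ATP plus [γ-33P]ATP in Tris pH 7.4, 15 mM Mg acetate, 0.2 mM EDTA, 30 °C, 20 min. Peptide captured on P81 filters for scintillation counting; compounds added from DMSO dilutions.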

The mark [5] stands for this setting: HeLa S3, compound 0.1 μM + paclitaxel 1 nM.
The mark [6] stands for this setting: Homo sapiens, HeLa S3, 72 h, read-out: Cell growth inhibitory effect by sole administration of the compound of Example (%).
Setting [7] is: HeLa S3, compound 0.3 μM + paclitaxel 1 nM.

T2 sequence (Q96GD4 whole entry): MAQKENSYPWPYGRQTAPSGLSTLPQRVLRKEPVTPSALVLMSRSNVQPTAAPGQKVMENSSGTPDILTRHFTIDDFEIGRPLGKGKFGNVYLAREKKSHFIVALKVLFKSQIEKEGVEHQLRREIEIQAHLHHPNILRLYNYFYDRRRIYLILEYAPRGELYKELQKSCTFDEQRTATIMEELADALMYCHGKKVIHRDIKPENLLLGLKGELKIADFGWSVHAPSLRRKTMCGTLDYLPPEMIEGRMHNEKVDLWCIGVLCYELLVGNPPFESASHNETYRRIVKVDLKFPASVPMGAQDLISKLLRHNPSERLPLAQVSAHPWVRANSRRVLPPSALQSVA

As a reminder, the IC50 is the concentration that inhibits the measured activity by half. A lower IC50 goes with inhibition by little substance. Take `O=C(c1cccc(Cl)c1F)N1CCN(Cc2cccc(Nc3nccs3)n2)CC1` [Example 5, 6-((4-(3-chloro-2-fluorobenzoyl)piperazin-1-yl)methyl)-N-thiazol-2-ylpyridin-2-amine]: the IC50 is 0.00067 µM in test [1], 11 µM in test [2] and 0.44 µM in test [4]. For the same molecule, the “Cell growth inhibitory effect by combined administration of paclitaxel and the compound of Example (%)” value (“Cell growth inhibitory effect … of Example (%)” for short) in test [3] (setting [5]) came out at 72.8%. Also, the inhibition at 0.1 µM in test [3] (setting [6]) came out at 0%.
Take `O=C(c1cccc(Cl)c1Cl)N1CCN(Cc2cccc(Nc3nccs3)n2)CC1` [Example 6, 6-((4-(2,3-dichlorobenzoyl)piperazin-1-yl)methyl)-N-thiazol-2-ylpyridin-2-amine]: the figures for the 50% inhibitory concentration (IC50) in test [1], in test [2] and in test [4] were 0.0005 µM, 0.4 µM and 0.2 µM, respectively. Further, the “Cell growth inhibitory effect … of Example (%)” value in test [3] (setting [7]) stood at 89.0%. In test [3] (setting [6]), the inhibition at 0.3 µM amounted to 19.6%.
As for `Cc1cccc(C(=O)N2CCN(Cc3cccc(Nc4nccs4)n3)CC2)c1F` [Example 8, 6-((4-(2-fluoro-3-methylbenzoyl)piperazin-1-yl)methyl)-N-thiazol-2-ylpyridin-2-amine], the IC50 in test [1] came out at 0.0019 µM; in test [2] it was 0.25 µM; in test [4], 1.4 µM. Besides, the “Cell growth inhibitory effect … of Example (%)” value in test [3] (setting [5]) is 87.1%. The inhibition at 0.1 µM in test [3] (setting [6]) is 4.6%.
Turning to `O=C(c1cccc(Cl)c1Cl)N1CCN(Cc2cccc(Nc3cc[nH]n3)n2)CC1` [Example 17, 6-((4-(2,3-dichlorobenzoyl)piperazin-1-yl)methyl)-N-1H-pyrazol-3-ylpyridin-2-amine], the IC50 was determined as 0.0012 µM in test [1], 1.1 µM in test [2] and 3.2 µM in test [4]. In addition, the “Cell growth inhibitory effect … of Example (%)” value in test [3] (setting [7]) is given as 73.8%. In test [3] (setting [6]), the inhibition at 0.3 µM amounted to 0%.
As for `O=C(O)C(F)(F)F.O=C(c1cccc(C(F)(F)F)c1F)N1CCN(Cc2cccc(Nc3cc[nH]n3)n2)CC1` [Example 19, 6-((4-(2-fluoro-3-(trifluoromethyl)benzoyl)piperazin-1-yl)methyl)-N-1H-pyrazol-3-ylpyridin-2-amine trifluoroacetate], the IC50 in test [1] came out at 0.0009 µM; in test [2], 0.92 µM; in test [4], 0.53 µM. In test [3] (setting [5]), the “Cell growth inhibitory effect … of Example (%)” value worked out at 77.6%. Also, in test [3] (setting [6]), the inhibition at 0.1 µM is 0%.
Turning to `O=C(c1cccc(C(F)F)c1F)N1CCN(Cc2cccc(Nc3cc[nH]n3)n2)CC1` [Example 22, 6-((4-(3-(difluoromethyl)-2-fluorobenzoyl)piperazin-1-yl)methyl)-N-1H-pyrazol-3-ylpyridin-2-amine], the IC50 worked out at 0.0029 µM in test [1], 3.5 µM in test [2] and 1.5 µM in test [4]. In addition, in test [3] (HeLa S3, compound 1.0 μM + paclitaxel 1 nM), the “Cell growth inhibitory effect … of Example (%)” value is 80.9%. For the same molecule, the inhibition at 1 µM in test [3] (Homo sapiens, HeLa S3, 72 h, HeLa S3, compound 1.0 μM alone, read-out: Cell growth inhibitory effect by sole administration of the compound of Example (%)) is 18.5%.
Regarding `Cc1cc(Nc2cccc(CN3CCN(C(=O)c4cccc(Cl)c4F)CC3)n2)n[nH]1` [Example 25, 6-((4-(3-chloro-2-fluorobenzoyl)piperazin-1-yl)methyl)-N-(5-methyl-1H-pyrazol-3-yl)pyridin-2-amine], the IC50 in test [1] worked out at 0.0011 µM; in test [2], 0.8 µM; in test [4], 0.77 µM. For the same molecule, the “Cell growth inhibitory effect … of Example (%)” value in test [3] (setting [5]) is 65.1%. Moreover, the inhibition at 0.1 µM in test [3] (setting [6]) is 0%.
Regarding `Cc1cc(Nc2cccc(CN3CCN(C(=O)c4cccc(Br)c4F)CC3)n2)n[nH]1` [Example 28, 6-((4-(3-bromo-2-fluorobenzoyl)piperazin-1-yl)methyl)-N-(5-methyl-1H-pyrazol-3-yl)pyridin-2-amine], the IC50 turned out to be 0.00052 µM in test [1], 1.1 µM in test [2] and 0.31 µM in test [4]. Moreover, the “Cell growth inhibitory effect … of Example (%)” value in test [3] (setting [7]) came out at 84.5%. The inhibition at 0.3 µM in test [3] (setting [6]) is 0%.
Taken in the same sequence, the figures for `Cc1cc(Nc2cccc(CN3CCN(C(=O)c4cccc(C(F)(F)F)c4F)CC3)n2)n[nH]1` [Example 29, 6-((4-(2-fluoro-3-(trifluoromethyl)benzoyl)piperazin-1-yl)methyl)-N-(5-methyl-1H-pyrazol-3-yl)pyridin-2-amine] were 0.00097 µM, 3.3 µM, 0.59 µM, 77.3% and 0%.
`Cc1nc(-c2cc(CN3CCN(C(=O)c4cccc(Cl)c4F)CC3)nc(Nc3nccs3)c2)no1` [Example 109, 6-((4-(3-chloro-2-fluorobenzoyl)piperazin-1-yl)methyl)-4-(5-methyl-1,2,4-oxadiazol-3-yl)-N-thiazol-2-ylpyridin-2-amine]: the IC50 in test [1] amounted to 0.00042 µM; in test [4], 0.52 µM.
For the molecule `Cc1noc(-c2cc(CN3CCN(C(=O)c4cccc(Cl)c4F)CC3)nc(Nc3nccs3)c2)n1` [Example 110, 6-((4-(3-chloro-2-fluorobenzoyl)piperazin-1-yl)methyl)-4-(3-methyl-1,2,4-oxadiazol-5-yl)-N-thiazol-2-ylpyridin-2-amine], the IC50 was found to be 0.00059 µM in test [1] and 0.75 µM in test [4].
Taken in the same sequence, the figures for `O=C(c1cccc(Cl)c1F)N1CCN(Cc2cccc(Nc3ncc(F)s3)n2)CC1` [Example 112, 6-((4-(3-chloro-2-fluorobenzoyl)piperazin-1-yl)methyl)-N-(5-fluorothiazol-2-yl)pyridin-2-amine] were 0.00081 µM and 0.23 µM.
On to `CC(=O)O[C@H]1C(=O)[C@@]2(C)[C@H]([C@H](OC(=O)c3ccccc3)[C@]3(O)C[C@H](OC(=O)[C@H](O)[C@@H](NC(=O)c4ccccc4)c4ccccc4)C(C)=C1C3(C)C)[C@]1(OC(C)=O)CO[C@@H]1C[C@@H]2O` [paclitaxel, reference compound], for which, in test [3] (HeLa S3, paclitaxel 1 nM alone), the “Cell growth inhibitory effect by sole administration of paclitaxel (1 nM) (%)” value was 37.8% and 45.4% and 43.3% and 36.8%. For the same molecule, in test [3] (Homo sapiens, HeLa S3, 72 h, HeLa S3, paclitaxel 1 nM alone, read-out: Cell growth inhibitory effect by sole administration of paclitaxel (1 nM) (%)), the inhibition at 0.001 µM came to 44.1%.
